Patent US6627628B1, “Substituted 4-amino-2-aryl-cyclopenta[d]pyrimidines, their production and use and pharmaceutical preparations containing same” (Aventis Pharma Deutschland, GmbH, priority 1998, dated 2003)

What was measured:
[1] = molecular target: T1, soluble guanylate cyclase (sGC) (Bos taurus, UniProt P16068+P19687); experiment: Activation of soluble guanylate cyclase (cGMP enzyme immunoassay); format: biochemical; conditions: sGC isolated from bovine lung; test substance 50 μM; 5% DMSO; 37° C., 15 to 20 minutes; [cGMP]test substance/[cGMP]control (basal enzyme activity)
T1 construct: The sGC employed had been isolated from bovine lung; from tissue; host or cells: bovine lung
T1 sequence (P19687 1-691): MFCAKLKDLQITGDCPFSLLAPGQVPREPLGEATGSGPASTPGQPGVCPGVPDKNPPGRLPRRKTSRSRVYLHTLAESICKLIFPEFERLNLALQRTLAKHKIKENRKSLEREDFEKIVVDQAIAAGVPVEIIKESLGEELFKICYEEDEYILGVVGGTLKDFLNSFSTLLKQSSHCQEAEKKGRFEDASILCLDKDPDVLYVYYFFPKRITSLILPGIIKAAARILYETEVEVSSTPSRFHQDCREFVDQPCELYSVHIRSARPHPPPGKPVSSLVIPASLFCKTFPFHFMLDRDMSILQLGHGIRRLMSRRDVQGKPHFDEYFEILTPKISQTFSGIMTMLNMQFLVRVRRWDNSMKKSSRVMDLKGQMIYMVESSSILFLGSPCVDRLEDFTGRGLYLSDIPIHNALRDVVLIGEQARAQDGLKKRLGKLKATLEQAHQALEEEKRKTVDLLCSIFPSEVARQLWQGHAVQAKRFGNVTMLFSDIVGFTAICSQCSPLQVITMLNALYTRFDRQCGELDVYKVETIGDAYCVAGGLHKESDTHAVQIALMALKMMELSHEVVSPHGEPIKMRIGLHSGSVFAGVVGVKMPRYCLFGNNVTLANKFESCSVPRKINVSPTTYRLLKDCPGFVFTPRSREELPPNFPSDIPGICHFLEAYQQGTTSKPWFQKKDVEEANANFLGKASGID
T1 sequence (P16068 1-619): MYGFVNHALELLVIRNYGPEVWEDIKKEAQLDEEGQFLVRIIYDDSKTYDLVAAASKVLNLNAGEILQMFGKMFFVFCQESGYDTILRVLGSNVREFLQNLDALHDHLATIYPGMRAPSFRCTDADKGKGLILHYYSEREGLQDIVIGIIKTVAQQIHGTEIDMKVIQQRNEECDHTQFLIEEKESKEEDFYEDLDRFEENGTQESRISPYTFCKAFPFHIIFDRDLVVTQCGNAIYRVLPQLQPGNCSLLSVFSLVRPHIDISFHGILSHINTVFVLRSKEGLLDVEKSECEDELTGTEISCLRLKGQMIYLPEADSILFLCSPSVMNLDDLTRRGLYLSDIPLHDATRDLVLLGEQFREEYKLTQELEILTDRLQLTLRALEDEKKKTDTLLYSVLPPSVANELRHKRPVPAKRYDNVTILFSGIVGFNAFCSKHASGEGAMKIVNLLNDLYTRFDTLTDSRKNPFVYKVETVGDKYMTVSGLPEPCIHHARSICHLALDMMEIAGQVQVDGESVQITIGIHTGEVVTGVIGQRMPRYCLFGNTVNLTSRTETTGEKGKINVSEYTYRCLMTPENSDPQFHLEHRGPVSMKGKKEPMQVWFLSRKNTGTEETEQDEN
Procedure: Activation of Soluble Guanylate Cyclase
The activation of soluble guanylate cyclase (sGC), which catalyzes the conversion of guanosine triphosphate (GTP) to cyclic guanosine monophosphate (cGMP) and pyrophosphate, by the compounds according to the invention was quantified with the aid of an enzyme immunoassay (EIA) from Amersham. For this, the test substances were first incubated with sGC in microtiter plates and then the quantity of the resulting cGMP was determined.
The test solutions (100 μl per well) contained 50 mM triethanolamine (TEA) buffer (pH 7.5), 3 mM MgCl2, 3 mM reduced glutathione (GSH), 0.1 mM GTP, 1 mM 3-isobutyl-1-methylxanthine (IBMX), suitably diluted enzyme solution and the test substance or, in the control experiments, solvent. The test substances were dissolved in dimethyl sulfoxide (DMSO) and the solution was diluted with DMSO/water such that the final concentration c of test substance in the test batch was 50 μM. The DMSO concentration in the test batch was 5% (v/v). The reaction was started by addition of the sGC. The reaction mix was incubated at 37° C. for 15 to 20 minutes and then stopped by ice-cooling and addition of the stop reagent (50 mM EDTA, pH 8.0). An aliquot of 50 μl was taken and employed for the determination of the cGMP content using the acetylation protocol of the Amersham cGMP EIA kit. The absorption of the samples was measured at 450 nm (reference wavelength 620 nm) in a microtiter plate reading apparatus. The cGMP concentration was determined by means of a calibration curve, which was obtained under the same experimental conditions.
n-fold stimulation=[cGMP]test substance/[cGMP]control.

| Compound | n-fold stimulation at c = 50 μM [1] [fold] | melting point [°C] |
| --- | --- | --- |
| Clc1ccc(-c2nc3c(c(NC4CCCC4)n2)CCC3)cc1 [Example 15, 2-(4-Chlorophenyl)-4-cyclopentylamino-6,7-dihydro-5H-cyclopenta[d]pyrimidine] | 7 | – |
| Clc1cc(Cl)cc(-c2nc3c(c(NC4CCCC4)n2)CCC3)c1 [Example 50, 2-(3,5-Dichlorophenyl)-4-cyclopentylamino-6,7-dihydro-5H-cyclopenta[d]-pyrimidine] | 8 | 153 |
| CCCCNc1nc(-c2cccc(Cl)c2)nc2c1CCC2 [Example 33, 2-(3-Chlorophenyl)-4-butylamino-6,7-dihydro-5H-cyclopenta[d]pyrimidine] | 5 | – |
| O[C@H]1CC[C@H](Nc2nc(-c3ccc(Cl)cc3)nc3c2CCC3)CC1 [Example 34, 2-(4-Chlorophenyl)-4-(trans-4-hydroxycyclohexylamino)-6,7-dihydro-5H-cyclopenta[d]pyrimidine] | 35 | 216 |
| CCCCNc1nc(-c2cc(Cl)cc(Cl)c2)nc2c1CCC2 [Example 49, 2-(3,5-Dichlorophenyl)-4-butylamino-6,7-dihydro-5H-cyclopenta[d]pyrimidine] | 5 | 93 |
| CCCCNc1nc(-c2ccc(C)cc2)nc2c1CCC2 [Example 40, 2-(4-Methylphenyl)-4-butylamino-6,7-dihydro-5H-cyclopenta[d]pyrimidine] | 8 | 133 |
| Clc1cccc(-c2nc3c(c(NC4CCCC4)n2)CCC3)c1 [Example 32, 2-(3-Chlorophenyl)-4-cyclopentylamino-6,7-dihydro-5H-cyclopenta[d]pyrimidine] | 15 | 129 |
| CCCN(CCC)c1nc(-c2ccc(C)cc2)nc2c1CCC2 [Example 45, 2-(4-Methylphenyl)-4-dipropylamino-6,7-dihydro-5H-cyclopenta[d]pyrimidine] | 7 | 117 |
| OCCCCNc1nc(-c2cc(Cl)cc(Cl)c2)nc2c1CCC2 [Example 48, 2-(3,5-Dichlorophenyl)-4-(4-hydroxybutylamino)-6,7-dihydro-5H-cyclopenta[d]-pyrimidine] | 9 | 142 |
| CCN(CC)c1nc(-c2ccc(Cl)cc2)nc2c1CCC2.Cl [Example 26, 2-(4-Chlorophenyl)-4-diethylamino-6,7-dihydro-5H-cyclopenta[d]pyrimidine hydrochloride] | 5 | 185 |
| CS(=O)(=O)O.O[C@H]1CC[C@H](Nc2nc(-c3cc(Cl)cc(Cl)c3)nc3c2CCC3)CC1 [Example 16, 2-(3,5-Dichlorophenyl)-4-(trans-4-hydroxycyclohexylamino)-6,7-dihydro-5H-cyclopenta[d]pyrimidine methanesulfonic acid salt] | 34 | – |
| Cc1ccc(-c2nc3c(c(N[C@H]4CC[C@H](O)CC4)n2)CCC3)cc1 [Example 43, 2-(4-Methylphenyl)-4-(trans-4-hydroxycyclohexylamino)-6,7-dihydro-5H-cyclopenta[d]pyrimidine] | 23 | 191 |

Next, values leading:

| n-fold stimulation at c = 50 μM [1] [fold] | melting point [°C] | Compound |
| --- | --- | --- |
| 7 | 114 | CCCN(CCC)c1nc(-c2ccc(Cl)cc2)nc2c1CCC2 [Example 35, 2-(4-Chlorophenyl)-4-dipropylamino-6,7-dihydro-5H-cyclopenta[d]pyrimidine] |
| 6 | 121 | CCCCNc1nc(-c2ccc(Cl)cc2)nc2c1CCC2 [Example 30, 2-(4-Chlorophenyl)-4-butylamino-6,7-dihydro-5H-cyclopenta[d]pyrimidine] |
| 10 | 163 | Cc1ccc(-c2nc3c(c(NC4CCCCC4)n2)CCC3)cc1 [Example 42, 2-(4-Methylphenyl)-4-cyclohexylamino-6,7-dihydro-5H-cyclopenta[d]pyrimidine] |
| 6 | 185 | CCN(CC)c1nc(-c2cccc(Cl)c2)nc2c1CCC2.Cl [Example 25, 2-(3-Chlorophenyl)-4-diethylamino-6,7-dihydro-5H-cyclopenta[d]pyrimidine hydrochloride] |
| 9 | 183 | Cc1ccc(-c2nc3c(c(NC4CCCC4)n2)CCC3)cc1 [Example 41, 2-(4-Methylphenyl)-4-cyclopentylamino-6,7-dihydro-5H-cyclopenta[d]pyrimidine] |
